Where only a bound is given, the exact number is not on record here.

System in one data set: not listed separately
The data set can be described thus: Plasma clearance in BALB/c mouse at 2 mg/kg, iv by LC-MS/MS analysis. It counts as ADME, organism-based. Set-up: dose 2 mg/kg, route intravenous.
Conditions: not given; call rule not given here
In the case of `Cc1nccn1-c1ccc(-c2ccc(CCC(=O)O)n2-c2ccc(O)cc2)s1`, the clearance stood at 23.9 mL/min/kg.

`O=C(O)CCc1ccc(-c2ccc(-n3ccnc3)cc2)n1-c1ccc(O)cc1` came in with a clearance of 37.1 mL/min/kg.

System in another data set: not listed separately
The data set can be described thus: Oral bioavailability in BALB/c mouse at 10 mg/kg by LC-MS/MS analysis. It counts as ADME, organism-based. The conditions noted are these: in vivo.
The molecule `Cc1nccn1-c1ccc(-c2ccc(CCC(=O)O)n2-c2ccc(O)cc2)s1` came in with a bioavailability of 3.9%.

On to `O=C(O)CCc1ccc(-c2ccc(-n3ccnc3)cc2)n1-c1ccc(O)cc1`, for which the bioavailability was 6.8%.

System in a further data set: not listed separately
Kind of data set: Inhibition of Smt-tagged S-nitrosoglutathione reductase expressed in Escherichia coli using […] as substrate for 3 mins by spectrophotometric analysis.
Conditions: not given
For `CCOC(=O)CCc1ccc(-c2ccc(OC)cc2)n1-c1ccc(CC(N)=O)cc1`, the IC50 result is recorded as “Not Active”.

Still in this data set, the particulars now being: read-out: IC50.
In the case of `Cc1nccn1-c1csc(-c2ccc(CCC(=O)O)n2-c2ccc(NS(C)(=O)=O)cc2)c1`, the IC50 was determined as 360 nM.

Turning to `Cc1cc(S(N)(=O)=O)ccc1-n1c(CCC(=O)O)ccc1-c1ccc(-n2ccnc2C)s1`, the IC50 turned out to be 22 nM.

For `CCOC(=O)CCc1ccc(-c2ccc(OC)cc2)n1-c1ccc(C(=O)Nc2ccncc2)cc1C`, the IC50 turned out to be 170 nM.

`Cc1nccn1-c1ccc(-c2ccc(CCC(=O)O)n2-c2ccc(NS(C)(=O)=O)cc2)cc1`: the 50% inhibitory concentration (IC50) was determined as 1790 nM.

Consider `CC(=O)Nc1ccc(-n2c(CCC(=O)O)ccc2-c2cc(-n3ccnc3C)cs2)cc1`, for which the IC50 was 140 nM.

Take `CCC(=O)Nc1ccc(-n2c(CCC(=O)O)ccc2-c2ccc(-n3ccnc3)cc2)c(C)c1`: the IC50 was 88 nM.

In the case of `CCOC(=O)CCc1ccc(-c2ccc(OC)cc2)n1-c1ccc(C(C)=O)cc1`, the IC50 is 960 nM.

Consider `CCOC(=O)CCc1ccc(-c2ccc(OC)cc2)n1-c1ccc(C(=O)NC)cc1`, for which the IC50 worked out at 4560 nM.

With `CC(=O)Nc1ccc(-n2c(CCC(=O)O)ccc2-c2ccc(-n3ccnc3C)cc2)c(C)c1`, the IC50 came out at 450 nM.

For `Cc1cc(CN)ccc1-n1c(CCC(=O)O)ccc1-c1ccc(-n2ccnc2)cc1`, the IC50 came out at 1590 nM.

With `Cc1cc(C(=O)O)ccc1-n1c(CCC(=O)O)ccc1-c1ccc(-n2ccnc2)cc1`, the IC50 was 110 nM.

In the case of `Cc1nccn1-c1ccc(-c2ccc(CCC(=O)O)n2-c2ccc(S(N)(=O)=O)cc2)s1`, the IC50 amounted to 23 nM.

On to `CC(=O)Nc1ccc(-n2c(CCC(=O)O)ccc2-c2ccc(-n3ccnc3)cc2)c(C)c1`, for which the IC50 stood at 56 nM.

In the case of `Cc1nccn1-c1ccc(-c2ccc(CCC(=O)O)n2-c2ccc(O)cc2)cc1`, the IC50 was determined as 54 nM.

`CCOC(=O)CCc1ccc(-c2ccc(OC)cc2)n1-c1ccc(C(=O)NCCOC)cc1C`: the 50% inhibitory concentration (IC50) worked out at 730 nM.

With `CCOC(=O)CCc1ccc(-c2ccc(OC)cc2)n1-c1ccc(O)cc1C`, the IC50 is 1550 nM.

For the molecule `Cc1cc(O)ccc1-n1c(CCC(=O)O)ccc1-c1ccc(-n2ccnc2)cc1`, the IC50 amounted to 180 nM.

Turning to `Cc1nccn1-c1ccc(-c2ccc(CCC(=O)O)n2-c2ccc(O)cc2)s1`, the IC50 was 36 nM.

In the case of `Cc1cc(NS(C)(=O)=O)ccc1-n1c(CCC(=O)O)ccc1-c1cc(-n2ccnc2C)cs1`, the IC50 amounted to 76 nM.

Take `CCOC(=O)CCc1ccc(-c2ccc(OC)cc2)n1-c1ccc(OC)cc1`: the half-maximal inhibitory concentration (IC50) stood at 1020 nM.

Consider `Cc1cc(NS(C)(=O)=O)ccc1-n1c(CCC(=O)O)ccc1-c1ccc(-n2ccnc2C)cc1`, for which the IC50 came out at 180 nM.

As to `CCOC(=O)CCc1ccc(-c2ccc(OC)cc2)n1-c1ccc(C(=O)Nc2ccnnc2)cc1C`, the IC50 is 640 nM.

With `O=C(O)CCc1ccc(-c2ccc(-n3ccnc3)s2)n1-c1ccc(O)cc1`, the IC50 is 32 nM.

Take `CCOC(=O)CCc1ccc(-c2ccc(OC)cc2)n1-c1ccc(S(N)(=O)=O)cc1C`: the IC50 was 330 nM.

For the molecule `CCOC(=O)CCc1ccc(-c2ccc(OC)cc2)n1-c1ccc(OC)cc1C`, the IC50 is 1800 nM.

For the molecule `CCOC(=O)CCc1ccc(-c2ccc(OC)cc2)n1-c1ccc(C(N)=O)cc1`, the IC50 is 460 nM.

On to `Cc1nccn1-c1cc(-c2ccc(CCC(=O)O)n2-c2ccc(O)cc2)cs1`, for which the IC50 stood at 45 nM.

For the molecule `CCOC(=O)CCc1ccc(-c2ccc(OC)cc2)n1-c1ccc(C(=O)NCCO)cc1C`, the IC50 was 660 nM.

For `CCOC(=O)CCc1ccc(-c2ccc(OC)cc2)n1-c1ccc(C(=O)N(C)C)cc1C`, the IC50 was determined as 1310 nM.

Regarding `COCC(=O)Nc1ccc(-n2c(CCC(=O)O)ccc2-c2ccc(-n3ccnc3)cc2)c(C)c1`, the IC50 turned out to be 96 nM.

For the molecule `O=C(O)CCc1ccc(-c2ccc(-n3ccnc3)cc2)n1-c1ccc(O)cc1`, the IC50 was 39 nM.

`CCOC(=O)CCc1ccc(-c2ccc(OC)cc2)n1-c1ccc(C)cc1C`: the IC50 came out at 8840 nM.

As for `CCOC(=O)CCc1ccc(-c2ccc(OC)cc2)n1-c1ccc(NC(N)=O)cc1`, the IC50 was 4800 nM.

Turning to `Cc1cc(N)ccc1-n1c(CCC(=O)O)ccc1-c1ccc(-n2ccnc2)cc1`, the IC50 came out at 1410 nM.

On to `CCOC(=O)CCc1ccc(-c2ccc(OC)cc2)n1-c1ccc(O)cc1`, for which the concentration for half-maximal inhibition (IC50) worked out at 240 nM.

In the case of `CCOC(=O)CCc1ccc(-c2ccc(OC)cc2)n1-c1ccc(NS(N)(=O)=O)cc1C`, the IC50 worked out at 710 nM.

With `CCOC(=O)CCc1ccc(-c2ccc(OC)cc2)n1-c1ccc(Br)cc1`, the IC50 was 3250 nM.

On to `CCOC(=O)CCc1ccc(-c2ccc(OC)cc2)n1-c1ccc(C(=O)Nc2cccnc2)cc1C`, for which the IC50 was determined as 440 nM.

As for `CCOC(=O)CCc1ccc(-c2ccc(OC)cc2)n1-c1ccc(C(=O)NC)cc1C`, the half-maximal inhibitory concentration (IC50) was 2410 nM.

For the molecule `CCOC(=O)CCc1ccc(-c2ccc(OC)cc2)n1-c1ccc(NC(C)=O)cc1`, the IC50 stood at 3270 nM.

In the case of `CC(=O)Nc1ccc(-n2c(CCC(=O)O)ccc2-c2ccc(-n3ccnc3C)cc2)cc1`, the IC50 amounted to 3890 nM.

`CCOC(=O)CCc1ccc(-c2ccc(Br)cc2)n1-c1ccc(C(=O)Nc2ccncc2)cc1C`: the concentration for half-maximal inhibition (IC50) came out at 61 nM.

Regarding `Cc1nccn1-c1csc(-c2ccc(CCC(=O)O)n2-c2ccc(O)cc2)c1`, the IC50 came out at 96 nM.

As to `CCOC(=O)CCc1ccc(-c2ccc(OC)cc2)n1-c1ccc(C(=O)Nc2cncnc2)cc1C`, the IC50 came out at 3740 nM.

The test system of the next data set is A549. Kind of data set: Cytotoxicity against human A549 cells after 48 hrs by MTS assay. It counts as cell-based. To be noted: A549, 48 h. For orientation: Formazan colour is commonly taken as a measure of viable cells.
In turn, `Cc1cc(S(N)(=O)=O)ccc1-n1c(CCC(=O)O)ccc1-c1ccc(-n2ccnc2C)s1` registered a half-inhibitory concentration (IC50) above 150000 nM.

On to `Cc1nccn1-c1ccc(-c2ccc(CCC(=O)O)n2-c2ccc(S(N)(=O)=O)cc2)s1`, for which the IC50 was above 150000 nM.

`Cc1nccn1-c1ccc(-c2ccc(CCC(=O)O)n2-c2ccc(O)cc2)s1` gave an IC50 above 150000 nM.

Take `Cc1cc(NS(C)(=O)=O)ccc1-n1c(CCC(=O)O)ccc1-c1cc(-n2ccnc2C)cs1`: the half-inhibitory concentration (IC50) is above 150000 nM.

In general, clearance refers to a measure of how efficiently the substance is removed, as volume per time. Higher therefore signals efficient removal. The bioavailability is dose-corrected exposure relative to a reference, in per cent. For orientation: IC50 means the concentration that inhibits the measured activity by half.

The values are drawn from ChEMBL document CHEMBL2010673, “Structure-activity relationship of pyrrole based S-nitrosoglutathione reductase inhibitors: carboxamide modification” (Bioorg Med Chem Lett, 2012).
